Laboratory results from patent US20260240975A1, “VALIDATED HPV16-DERIVED S[…]” (Deutsches Krebsforschungszentrum Stiftung des öffentlichen …, priority 2023, published 2026).

Tests used:
[1] = system: short-term antigen-specific T cell lines generated from PBMCs; test: Interferon-γ ELISpot assay on short-term T cell lines; format: cell-based, human; set-up: key: +: ELISPOT: Immungenicity of the peptide shown by IFN-gamma ELISPOT analysis; * Highlights data from published resources; +*: * Highlights data from published resources
[2] = system: peptide-specific T cell cultures; test: T cell phenotyping and intracellular cytokine staining (flow cytometry); format: cell-based, human; set-up: key: +: cytokine: Immunogenicity of the peptide shown by intracellular cytokine staining (IFN-gamma, TNF-alpha); conditions: IFN-gamma, TNF-alpha

Substance: 116 (GTTLEQQYNK; Human papillomavirus 16) [compound 116]
- ELISpot ([1]; HLA restriction A03): +

Substance: 9 (SEYRHYCYSLY; Human papillomavirus 16) [compound 9]
- ELISpot ([1]; HLA restriction A01): +
- ELISpot ([1]; HLA restriction B15): 1

Substance: 4 (YGVCDKCLKFY; Human papillomavirus 16) [compound 4]
- ELISpot ([1]; HLA restriction A01): +
- cytokine ([2]; HLA restriction A01): +

Substance: 81 (EPDRAHYNIV; Human papillomavirus 16) [compound 81]
- ELISpot ([1]; HLA restriction B07): +
- cytokine ([2]; HLA restriction B07): +

Substance: 5 (EYRYYCYSLY; Human papillomavirus 16) [compound 5]
- ELISpot ([1]; HLA restriction A01): +
- cytokine ([2]; HLA restriction A01): +

Substance: 3 (TIHDIILQCVY; Human papillomavirus 16) [compound 3]
- ELISpot ([1]; HLA restriction A01): +
- cytokine ([2]; HLA restriction A01): +

Substance: 104 (SEYRHYCY; Human papillomavirus 16) [compound 104]
- ELISpot ([1]; HLA restriction B15): +

Substance: 46 (GIVCPICSQK; Human papillomavirus 16) [compound 46]
- ELISpot ([1]; HLA restriction A03): +
- cytokine ([2]; HLA restriction A03): +

Substance: 40 (AFRDLCIVYR; Human papillomavirus 16) [compound 40]
- ELISpot ([1]; HLA restriction A11): +
- cytokine ([2]; HLA restriction A11): +

Substance: 44 (AVCDKCLKFYS; Human papillomavirus 16) [compound 44]
- ELISpot ([1]; HLA restriction A11): +
- cytokine ([2]; HLA restriction A11): +

Substance: 54 (TTLEQQYNK; Human papillomavirus 16) [compound 54]
- ELISpot ([1]; HLA restriction A03): +

Substance: 97 (LRREVYDFAF; Human papillomavirus 16) [compound 97]
- ELISpot ([1]; HLA restriction B15): +

Substance: 50 (KCLKFYSKI; Human papillomavirus 16) [compound 50]
- ELISpot ([1]; HLA restriction A03): +

Substance: 56 (LIRCINCQK; Human papillomavirus 16) [compound 56]
- ELISpot ([1]; HLA restriction A03): +

Substance: 110 (GQAEPDRAH; Human papillomavirus 16) [compound 110]
- ELISpot ([1]; HLA restriction B15): +

Substance: 59 (LGIVCPICSQK; Human papillomavirus 16) [compound 59]
- ELISpot ([1]; HLA restriction A11): +

Substance: 86 (AFRDLCIVY; Human papillomavirus 16) [compound 86]
- ELISpot ([1]; HLA restriction B15): +
- cytokine ([2]; HLA restriction B15): +

Substance: 45 (VCDKCLKFYSK; Human papillomavirus 16) [compound 45]
- ELISpot ([1]; HLA restriction A11): +
- cytokine ([2]; HLA restriction A11): +

Substance: 117 (RHYCYSLY; Human papillomavirus 16) [compound 117]
- ELISpot ([1]; HLA restriction A03): +
- cytokine ([2]; HLA restriction A03): 1

Substance: 35 (IILECVYCK; Human papillomavirus 16) [compound 35]
- ELISpot ([1]; HLA restriction A11): +

Substance: 113 (SEYRHYCY; Human papillomavirus 16) [compound 113]
- ELISpot ([1]; HLA restriction A01): +

Substance: 63 (PYAVCDKCLKF; Human papillomavirus 16) [compound 63]
- ELISpot ([1]; HLA restriction A24): +

Substance: 95 (YRHYCYSVY; Human papillomavirus 16) [compound 95]
- ELISpot ([1]; HLA restriction B15): +
- cytokine ([2]; HLA restriction B15): +

Substance: 89 (QQLLRREVY; Human papillomavirus 16) [compound 89]
- ELISpot ([1]; HLA restriction B15): +

Substance: 78 (RPRKLPQLCTE; Human papillomavirus 16) [compound 78]
- ELISpot ([1]; HLA restriction B07): +
- cytokine ([2]; HLA restriction B07): +

Substance: 105 (QQYNKPLCDL; Human papillomavirus 16) [compound 105]
- ELISpot ([1]; HLA restriction B15): +

Substance: 58 (KQRFHNIRGR; Human papillomavirus 16) [compound 58]
- ELISpot ([1]; HLA restriction A03): +

Substance: 106 (CQKPLCPEE; Human papillomavirus 16) [compound 106]
- ELISpot ([1]; HLA restriction B15): +

Substance: 71 (HYCYSLYGTTL; Human papillomavirus 16) [compound 71]
- ELISpot ([1]; HLA restriction A24): +
- cytokine ([2]; HLA restriction A24): +

Substance: 73 (HLDKKQRFHNI; Human papillomavirus 16) [compound 73]
- ELISpot ([1]; HLA restriction A24): +

Substance: 74 (DKKQRFHN; Human papillomavirus 16) [compound 74]
- ELISpot ([1]; HLA restriction A24): +

Substance: 29 (ELQTTIHDI; Human papillomavirus 16) [compound 29]
- ELISpot ([1]; HLA restriction A02): +

Substance: 93 (FAFRDLCIVY; Human papillomavirus 16) [compound 93]
- ELISpot ([1]; HLA restriction B15): +

Substance: 88 (GQAEPDRAHY; Human papillomavirus 16) [compound 88]
- ELISpot ([1]; HLA restriction B15): +
- cytokine ([2]; HLA restriction B15): +

Substance: 76 (RPRKLPQL; Human papillomavirus 16) [compound 76]
- ELISpot ([1]; HLA restriction B07): +
- cytokine ([2]; HLA restriction B07): +

Substance: 80 (NIRGRWTGRCM; Human papillomavirus 16) [compound 80]
- ELISpot ([1]; HLA restriction B07): +
- ELISpot ([1]; HLA restriction B15): +
- cytokine ([2]; HLA restriction B07): +

Substance: 48 (YAVCDKCLKFY; Human papillomavirus 16) [compound 48]
- ELISpot ([1]; HLA restriction A11): +

Substance: 51 (KFYSKISEY; Human papillomavirus 16) [compound 51]
- ELISpot ([1]; HLA restriction A03): +
- ELISpot ([1]; HLA restriction A24): +

Substance: 96 (LLRREVYDFAF; Human papillomavirus 16) [compound 96]
- ELISpot ([1]; HLA restriction B15): +

Substance: 85 (KQQLLRREVY; Human papillomavirus 16) [compound 85]
- ELISpot ([1]; HLA restriction B15): +
- cytokine ([2]; HLA restriction B15): +

Substance: 55 (DLLIRCINCQK; Human papillomavirus 16) [compound 55]
- ELISpot ([1]; HLA restriction A11): +
- cytokine ([2]; HLA restriction A11): +

Substance: 124 (LPQLCTELQT; Human papillomavirus 16) [compound 124]
- ELISpot ([1]; HLA restriction B07): +

Substance: 119 (HYNIVTFC; Human papillomavirus 16) [compound 119]
- ELISpot ([1]; HLA restriction A24): +

Substance: 122 (RPRKLPDLCT; Human papillomavirus 16) [compound 122]
- ELISpot ([1]; HLA restriction B07): +
- cytokine ([2]; HLA restriction B07): +

Substance: 7 (TTDLYCYEQ; Human papillomavirus 16) [compound 7]
- ELISpot ([1]; HLA restriction A01): +
- cytokine ([2]; HLA restriction A01): +

Substance: 101 (FYSKISEY; Human papillomavirus 16) [compound 101]
- ELISpot ([1]; HLA restriction B15): +

Substance: 94 (LCIVYRDGNPY; Human papillomavirus 16) [compound 94]
- ELISpot ([1]; HLA restriction B15): +

Substance: 66 (PDRAHYNIVTF; Human papillomavirus 16) [compound 66]
- ELISpot ([1]; HLA restriction A24): +
- cytokine ([2]; HLA restriction A24): +

Substance: 129 (FYSKISEY; Human papillomavirus 16) [compound 129]
- ELISpot ([1]; HLA restriction B15): +

Substance: 39 (FAFRDLCIVYR; Human papillomavirus 16) [compound 39]
- ELISpot ([1]; HLA restriction A11): +
- cytokine ([2]; HLA restriction A11): +

Substance: 28 (KLPQLCTELQT; Human papillomavirus 16) [compound 28]
- ELISpot ([1]; HLA restriction A02): +

Substance: 42 (NPYAVCDKCLK; Human papillomavirus 16) [compound 42]
- ELISpot ([1]; HLA restriction A11): +
- cytokine ([2]; HLA restriction A11): +

Substance: 100 (CLKFYSKISEY; Human papillomavirus 16) [compound 100]
- ELISpot ([1]; HLA restriction B15): +

Substance: 127 (RGRWTGRCM; Human papillomavirus 16) [compound 127]
- ELISpot ([1]; HLA restriction B15): +

Substance: 99 (AVCDKCLKF; Human papillomavirus 16) [compound 99]
- ELISpot ([1]; HLA restriction B15): +

Substance: 52 (KFYSKISEYR; Human papillomavirus 16) [compound 52]
- ELISpot ([1]; HLA restriction A03): +

Substance: 49 (AVCDKCLK; Human papillomavirus 16) [compound 49]
- ELISpot ([1]; HLA restriction A03): +

Substance: 67 (DRAHYNIVTF; Human papillomavirus 16) [compound 67]
- ELISpot ([1]; HLA restriction A24): +
- cytokine ([2]; HLA restriction A24): +

Substance: 84 (RCMSCCRSSR; Human papillomavirus 16) [compound 84]
- ELISpot ([1]; HLA restriction B07): +

Substance: 41 (IVYRDGNPY; Human papillomavirus 16) [compound 41]
- ELISpot ([1]; HLA restriction A11): +
- cytokine ([2]; HLA restriction A11): +

Substance: 128 (AGQAEPDRAHY; Human papillomavirus 16) [compound 128]
- ELISpot ([1]; HLA restriction B15): +

Substance: 57 (RCINCQKPLCP; Human papillomavirus 16) [compound 57]
- ELISpot ([1]; HLA restriction A03): +

Substance: 47 (MFQDPQERPRK; Human papillomavirus 16) [compound 47]
- ELISpot ([1]; HLA restriction A03): +

Substance: 114 (IHEIILECVY; Human papillomavirus 16) [compound 114]
- ELISpot ([1]; HLA restriction A01): +

Substance: 75 (AHYNIVTF; Human papillomavirus 16) [compound 75]
- ELISpot ([1]; HLA restriction A24): +

Substance: 123 (CPDEKQRHL; Human papillomavirus 16) [compound 123]
- ELISpot ([1]; HLA restriction B07): +

Substance: 36 (HLDKKQRFH; Human papillomavirus 16) [compound 36]
- ELISpot ([1]; HLA restriction A03): +

Substance: 32 (TLHEYMLDLQP; Human papillomavirus 16) [compound 32]
- ELISpot ([1]; HLA restriction A02): +

Substance: 72 (YSLYGTTL; Human papillomavirus 16) [compound 72]
- ELISpot ([1]; HLA restriction A24): +

Substance: 108 (KQRFHNIRGRW; Human papillomavirus 16) [compound 108]
- ELISpot ([1]; HLA restriction B15): +
- cytokine ([2]; HLA restriction B15): +

Substance: 98 (IVYRDGNPYAV; Human papillomavirus 16) [compound 98]
- ELISpot ([1]; HLA restriction B15): +

Substance: 112 (TTDLYCYEQL; Human papillomavirus 16) [compound 112]
- ELISpot ([1]; HLA restriction A01): +

Substance: 109 (TLHEYMLDL; Human papillomavirus 16) [compound 109]
- ELISpot ([1]; HLA restriction B15): +

Substance: 126 (KISEYRHY; Human papillomavirus 16) [compound 126]
- ELISpot ([1]; HLA restriction B15): +

Substance: 107 (KQRHLDKKQRF; Human papillomavirus 16) [compound 107]
- ELISpot ([1]; HLA restriction B15): +

Substance: 6 (DLQPETTDLY; Human papillomavirus 16) [compound 6]
- ELISpot ([1]; HLA restriction A01): +
- cytokine ([2]; HLA restriction A01): +

Substance: 8 (SKISEYRHYCY; Human papillomavirus 16) [compound 8]
- ELISpot ([1]; HLA restriction A01): +

Substance: 24 (LLMGTLGIVC; Human papillomavirus 16) [compound 24]
- ELISpot ([1]; HLA restriction A02): +
- cytokine ([2]; HLA restriction A02): +

Substance: 68 (HYNIVTFCC; Human papillomavirus 16) [compound 68]
- ELISpot ([1]; HLA restriction A24): +
- cytokine ([2]; HLA restriction A24): +

Substance: 10 (ETTDLYCY; Human papillomavirus 16) [compound 10]
- ELISpot ([1]; HLA restriction A01): +

Substance: 82 (RPRKLPQLCT; Human papillomavirus 16) [compound 82]
- ELISpot ([1]; HLA restriction B07): +
